Data from patent publication US20070219186A1, “Pyrazolo[1,5-A]pyrimidine derivatives and methods of use thereof” (priority 2006, published 2007).
Where two headings read alike, the source gives them in different places.

Molecular target: T1, human B-Raf (Homo sapiens, UniProt P15056)
T1 construct: Flag; GST; made in house; host or cells: Sf9 insect cells (B-Raf); E. coli (MEK1-GST)
Assay: B-Raf Kinase to MEK1 ELISA
Format: biochemical
Conditions: for inhibition at 10 µM: read-out: % Inhib./10 uM
Outline: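 Read-out is a DELFIA europium signal from phospho-MEK1 (Ser217/221) antibody after capture of GST-MEK1 (50 nM final) on anti-GST plates. Phosphorylation comes from Sf9-expressed Flag/GST human B-Raf (~20 ng) with ATP/MgCl2, 60 min RT, pH 7.2 MOPS.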

[1] = median, cpd concentrations from 10 μM to 30 nM in half log dilutions, read-out: Median IC50

T1 sequence (P15056 whole entry): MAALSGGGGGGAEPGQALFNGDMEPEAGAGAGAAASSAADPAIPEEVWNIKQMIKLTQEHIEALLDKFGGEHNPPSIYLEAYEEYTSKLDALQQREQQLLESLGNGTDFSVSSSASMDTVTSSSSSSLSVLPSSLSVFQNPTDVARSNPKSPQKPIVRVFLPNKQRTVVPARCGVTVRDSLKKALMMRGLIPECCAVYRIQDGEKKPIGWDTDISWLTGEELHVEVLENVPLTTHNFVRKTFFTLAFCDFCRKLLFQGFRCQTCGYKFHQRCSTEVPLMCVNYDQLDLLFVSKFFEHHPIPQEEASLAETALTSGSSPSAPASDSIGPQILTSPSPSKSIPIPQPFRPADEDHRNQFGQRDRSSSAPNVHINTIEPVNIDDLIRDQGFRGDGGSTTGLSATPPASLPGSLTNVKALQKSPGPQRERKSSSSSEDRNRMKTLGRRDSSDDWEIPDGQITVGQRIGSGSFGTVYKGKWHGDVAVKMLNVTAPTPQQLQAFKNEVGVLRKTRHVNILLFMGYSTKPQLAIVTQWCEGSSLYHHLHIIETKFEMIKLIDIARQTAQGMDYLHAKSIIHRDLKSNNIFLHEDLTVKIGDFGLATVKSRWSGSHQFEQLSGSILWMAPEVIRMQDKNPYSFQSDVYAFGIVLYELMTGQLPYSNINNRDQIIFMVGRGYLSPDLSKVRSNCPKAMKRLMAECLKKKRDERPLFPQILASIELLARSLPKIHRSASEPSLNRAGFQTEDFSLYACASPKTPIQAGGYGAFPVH

Row | Compound | IC50 [1] | inhibition at 10 µM | inhibition at 10 µM (single point assay, 10 uM) | IC50
1 | O=C(Cc1c[nH]cn1)Nc1ccc(-c2cnn3c(-c4cccc(NC(=O)c5cccc(C(F)(F)F)c5)c4)ccnc23)cc1 [Example 232, N-[3-(3-{4-[(1H-imidazol-4-ylacetyl)amino]phenyl}pyrazolo[1,5-a]pyrimidin-7-yl)phenyl]-3-(trifluoromethyl)benzamide] | 174 nM | 99% | – | –
2 | Cc1ccc(C(=O)Nc2cccc(-c3ccnc4c(C#N)cnn34)c2)cc1C(F)(F)F [Example 69, N-[3-(3-cyanopyrazolo[1,5-a]pyrimidin-7-yl)phenyl]-4-methyl-3-(trifluoromethyl)benzamide] | > 10000 nM | 13% | – | –
3 | COc1ccc(C(=O)Nc2cccc(-c3ccnc4c(-c5ccncc5)cnn34)c2)cc1C(F)(F)F [Example 189, 4-methoxy-N-[3-(3-pyridin-4-ylpyrazolo[1,5-a]pyrimidin-7-yl)phenyl]-3-(trifluoromethyl)benzamide] | – | 83% | – | 360 nM
4 | CCOC(=O)c1cnn2c(-c3cccc(NC(=O)Nc4cc(Cl)cc(Cl)c4)c3)ccnc12 [Example 17, ethyl 7-[3-({[(3,5-dichlorophenyl)amino]carbonyl}amino)phenyl]pyrazolo[1,5-a]pyrimidine-3-carboxylate] | > 10000 nM | 30% | – | –
5 | CN(C)c1cc2nccc(-c3cccc(NC(=O)c4cccc(C(F)(F)F)c4)c3)n2n1 [Example 187, N-{3-[2-(dimethylamino)pyrazolo[1,5-a]pyrimidin-7-yl]phenyl}-3-(trifluoromethyl)benzamide] | > 10000 nM | 31% | – | –
6 | CN(C)CC(=O)Nc1cccc(-c2cnn3c(-c4cccc(NC(=O)c5cccc(C(F)(F)F)c5)c4)ccnc23)c1 [Example 253, N-[3-(3-{3-[(N,N-dimethylglycyl)amino]phenyl}pyrazolo[1,5-a]pyrimidin-7-yl)phenyl]-3-(trifluoromethyl)benzamide] | 40 nM | 97% | – | –
7 | COc1ccc(C(=O)Nc2cccc(-c3ccnc4c(-c5cccnc5)cnn34)c2)cc1C(F)(F)F [Example 170, 4-methoxy-N-[3-(3-pyridin-3-ylpyrazolo[1,5-a]pyrimidin-7-yl)phenyl]-3-(trifluoromethyl)benzamide] | – | 96% | – | 140 nM
8 | O=C(Cc1nnn[nH]1)Nc1cccc(-c2cnn3c(-c4cccc(NC(=O)c5cccc(C(F)(F)F)c5)c4)ccnc23)c1 [Example 256, N-[3-(3-{3-[(1H-tetrazol-5-ylacetyl)amino]phenyl}pyrazolo[1,5-a]pyrimidin-7-yl)phenyl]-3-(trifluoromethyl)benzamide] | 122 nM | 97% | – | –
9 | Cc1cc(-c2cccc(NC(=O)c3cccc(C(F)(F)F)c3)c2)n2nc(-c3ccncc3)cc2n1 [Example 302, N-[3-(5-methyl-2-pyridin-4-ylpyrazolo[1,5-a]pyrimidin-7-yl)phenyl]-3-(trifluoromethyl)benzamide] | 800 nM | 72% | – | –
10 | O=C(Nc1cccc(-c2ccnc3c(C(=O)NCCCN4CCOCC4)cnn23)c1)c1cccc(C(F)(F)F)c1 [Example 53, N-(3-morpholin-4-ylpropyl)-7-(3-{[3-(trifluoromethyl)benzoyl]amino}phenyl)pyrazolo[1,5-a]pyrimidine-3-carboxamide] | 5000 nM | 55% | – | –
11 | O=C(Nc1cccc(-c2ccnc3cc(-c4ccc(Br)cc4)nn23)c1)c1cccc(C(F)(F)F)c1 [Example 287, N-{3-[2-(4-bromophenyl)pyrazolo[1,5-a]pyrimidin-7-yl]phenyl}-3-(trifluoromethyl)benzamide] | > 10000 nM | 12% | – | –
12 | O=C(Nc1cccc(-c2ccnc3c(Br)cnn23)c1)c1ccc(Cl)c(C(F)(F)F)c1 [Example 164, N-[3-(3-bromopyrazolo[1,5-a]pyrimidin-7-yl)phenyl]-4-chloro-3-(trifluoromethyl)benzamide] | > 10000 nM | 58% | – | –
13 | CCOC(=O)c1cnn2c(-c3cccc(NC(=O)CC(C)(C)C)c3)ccnc12 [Example 225, ethyl7-{3-[(3,3-dimethylbutanoyl)amino]phenyl}pyrazolo[1,5-a]pyrimidine-3-carboxylate] | > 10000 nM | 7% | – | –
14 | Cc1ccc(C(=O)Nc2cccc(-c3ccnc4c(-c5cccc(C#N)c5)cnn34)c2)cc1C(F)(F)F [Example 182, N-{3-[3-(3-cyanophenyl)pyrazolo[1,5-a]pyrimidin-7-yl]phenyl}-4-methyl-3-(trifluoromethyl)benzamide] | > 10000 nM | 29% | – | –
15 | CN1CCN(CCCNC(=O)c2cnn3c(-c4cccc(NC(=O)c5cccc(C(F)(F)F)c5)c4)ccnc23)CC1 [Example 50, N-[3-(4-methylpiperazin-1-yl)propyl]-7-(3-{[3-(trifluoromethyl)benzoyl]amino}phenyl)pyrazolo[1,5-a]pyrimidine-3-carboxamide] | 8000 nM | 42% | – | –

Continued, values first:

Row | IC50 [1] | inhibition at 10 µM | inhibition at 10 µM (single point assay, 10 uM) | IC50 | Compound
16 | > 10000 nM | 20% | – | – | CCOC(=O)c1cnn2c(-c3cccc(NC(=O)Nc4ccc(OC(F)(F)F)cc4)c3)ccnc12 [Example 23, ethyl 7-{3-[({[4-(trifluoromethoxy)phenyl]amino}carbonyl)amino]phenyl}pyrazolo[1,5-a]pyrimidine-3-carboxylate]
17 | > 10000 nM | – | 14% | – | N#Cc1cnn2c(-c3cccc(NC(=O)c4cccc(C(F)(F)F)c4)c3)ccnc12 [Example 63, N-[3-(3-cyanopyrazolo[1,5-a]pyrimidin-7-yl)phenyl]-3-(trifluoromethyl)benzamide]
18 | 1600 nM | 54% | – | – | CCOC(=O)c1cnn2c(-c3cccc(NC(=O)c4cc(C(C)(C)C)cc(C(C)(C)C)c4)c3)ccnc12 [Example 227, ethyl7-{3-[(3,5-di-tert-butylbenzoyl)amino]phenyl}pyrazolo[1,5-a]pyrimidine-3-carboxylate]
19 | > 10000 nM | 32% | – | – | CN1CCCC1CCNC(=O)c1cnn2c(-c3cccc(NC(=O)c4cccc(C(F)(F)F)c4)c3)ccnc12 (stereo not drawn) [Example 54, N-[2-(1-methylpyrrolidin-2-yl)ethyl]-7-(3-{[3-(trifluoromethyl)benzoyl]amino}phenyl)pyrazolo[1,5-a]pyrimidine-3-carboxamide]
20 | > 10000 nM | 0% | – | – | CCOC(=O)c1cnn2c(-c3cccc(NC(=O)c4cc(F)c(Cl)cc4F)c3)ccnc12 [Example 29, ethyl 7-{3-[(4-chloro-2,5-difluorobenzoyl)amino]phenyl}pyrazolo[1,5-a]pyrimidine-3-carboxylate]
21 | 1300 nM | 75% | – | – | CCOC(=O)c1cnn2c(-c3cccc(NC(=O)c4ccc(OC)c(C(F)(F)F)c4)c3)ccnc12 [Example 30, ethyl 7-(3-{[4-methoxy-3-(trifluoromethyl)benzoyl]amino}phenyl)pyrazolo[1,5-a]pyrimidine-3-carboxylate]
22 | 116 nM | 68% | – | – | COCCOC(=O)c1cnn2c(-c3cccc(NC(=O)c4cccc(C(F)(F)F)c4)c3)ccnc12 [Example 128, 2-methoxyethyl 7-(3-{[3-(trifluoromethyl)benzoyl]amino}phenyl)pyrazolo[1,5-a]pyrimidine-3-carboxylate]
23 | 370 nM | 88% | – | – | CCOC(=O)c1cnn2c(-c3cccc(NC(=O)Nc4ccc(C)c(C(F)(F)F)c4)c3)ccnc12 [Example 79, ethyl 7-{3-[({[4-methyl-3-(trifluoromethyl)phenyl]amino}carbonyl)amino]phenyl}pyrazolo[1,5-a]pyrimidine-3-carboxylate]
24 | – | 80% | – | 10700 nM | O=C(Nc1cccc(-c2ccnc3c(-c4ccc(F)nc4)cnn23)c1)c1cccc(C(F)(F)F)c1 [Example 311, N-{3-[3-(6-fluoropyridin-3-yl)pyrazolo[1,5-a]pyrimidin-7-yl]phenyl}-3-(trifluoromethyl)benzamide]
25 | 1430 nM | – | 67% | – | CCOC(=O)c1cnn2c(-c3cccc(NC(=O)c4cccc(OC(F)(F)F)c4)c3)ccnc12 [Example 7, ethyl 7-(3-{[3-(trifluoromethoxy)benzoyl]amino}phenyl)pyrazolo[1,5-a]pyrimidine-3-carboxylate]
26 | > 10000 nM | 0% | – | – | CCOC(=O)c1cnn2c(-c3cccc(NC(=O)Cc4c(F)ccc(F)c4F)c3)ccnc12 [Example 102, ethyl 7-(3-{[(2,3,6-trifluorophenyl)acetyl]amino}phenyl)pyrazolo[1,5-a]pyrimidine-3-carboxylate]
27 | 246 nM | 80% | – | – | COCCC(=O)Nc1ccc(-c2cnn3c(-c4cccc(NC(=O)c5cccc(C(F)(F)F)c5)c4)ccnc23)cc1 [Example 231, N-[3-(3-{4-[(3-methoxypropanoyl)amino]phenyl}pyrazolo[1,5-a]pyrimidin-7-yl)phenyl]-3-(trifluoromethyl)benzamide]
28 | > 10000 nM | 14% | – | – | CCOC(=O)c1cnn2c(-c3ccc(OC)c(NC(=O)c4cccc(C(F)(F)F)c4)c3)ccnc12 [Example 88, ethyl 7-(4-methoxy-3-{[3-(trifluoromethyl)benzoyl]amino}phenyl)pyrazolo[1,5-a]pyrimidine-3-carboxylate]
29 | 514 nM | 82% | – | – | O=C(O)c1cccc(-c2cnn3c(-c4cccc(NC(=O)c5cccc(C(F)(F)F)c5)c4)ccnc23)c1 [Example 314, 3-[7-(3-{[3-(trifluoromethyl)benzoyl]amino}phenyl)pyrazolo[1,5-a]pyrimidin-3-yl]benzoic acid]
30 | 6600 nM | 58% | – | – | CCOC(=O)c1cnn2c(-c3cccc(NC(=O)c4cc(F)cc(C(F)(F)F)c4)c3)ccnc12 [Example 75, ethyl 7-(3-{[3-fluoro-5-(trifluoromethyl)benzoyl]amino}phenyl)pyrazolo[1,5-a]pyrimidine-3-carboxylate]
